Source: BindingDB's records for doi:10.1021/jm070574f (University of Copenhagen, 2007)

Target: Neuronal acetylcholine receptor subunit alpha-7 (Homo sapiens, UniProt P36544)
Assay: Antagonist activity at human alpha-7 nAChR in tsA201 cells coexpressed with Ric3 by FMP assay

Neuronal acetylcholine receptor subunit alpha-7, sequence (P36544 whole entry): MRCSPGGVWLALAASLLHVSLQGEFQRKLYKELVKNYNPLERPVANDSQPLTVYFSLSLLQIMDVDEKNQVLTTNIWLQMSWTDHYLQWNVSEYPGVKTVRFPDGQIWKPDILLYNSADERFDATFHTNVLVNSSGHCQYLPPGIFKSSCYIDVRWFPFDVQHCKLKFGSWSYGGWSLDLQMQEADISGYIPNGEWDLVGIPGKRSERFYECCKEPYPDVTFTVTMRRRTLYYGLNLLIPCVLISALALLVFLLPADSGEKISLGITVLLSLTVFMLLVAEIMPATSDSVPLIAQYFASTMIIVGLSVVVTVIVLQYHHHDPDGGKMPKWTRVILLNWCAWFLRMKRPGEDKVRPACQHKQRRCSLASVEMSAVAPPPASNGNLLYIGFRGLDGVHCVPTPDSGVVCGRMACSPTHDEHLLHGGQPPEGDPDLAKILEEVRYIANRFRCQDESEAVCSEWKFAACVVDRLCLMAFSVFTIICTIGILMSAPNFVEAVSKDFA

CCN1C[C@]2(COC(=O)c3ccccc3-n3c(O)cc(C)c3O)CC[C@H](OC)[C@]34[C@@H]5C[C@H]6[C@H](OC)[C@@H]5[C@](O)(C[C@@H]6OC)[C@@](O)([C@H]13)[C@@H](OC)[C@H]24 [METHYLLYCACONITINE]
IC50: 8.3 nM
